Experimental data published in patent US7122543B2, “Substituted benzoic acid derivatives having NF-κB inhibiting action” (Daiichi Suntory Pharma Co., Ltd., priority 2001, dated 2006).

System: NF-κB
Assay: NF-κB luciferase reporter assay in A549/NF-κBLuc cells stimulated with IL-1β
Assay type: cell-based, human
Conditions: for IC50: Homo sapiens
Protocol: Effects of Compounds on Human Lung Cancer A549 Cells (A549/NF-κBLuc) Stably Transfected with Luciferase Plasmid (pNFκB-Luc, Stratagene, U.S.A.) Having the NF-κB Regulatory Sequence
Using lipofectamine (Lifetech Oriental K.K., Tokyo), pNFκB-Luc were cotransfected with pSV2neo (Clontech, U.S.A.) into A549 cells (ATCC CCL185) according to the conventional method, and A549/NF-κBLuc stably transfected with pNFκB-Luc were selected by adding G418 sulfate (1 mg/ml, Lifetech Oriental K.K.) to the culture medium.
A compound prepared in an Example was added to A549/NF-κBLuc, then IL-1β which was able to activate the NF-κB was added at 1 hour thereafter and incubation was continued for 3 hours more. It has been made clear by using a luciferase activity as an index that the compound obtained in the Example suppresses the activation of NF-κB by stimulated with IL-1β.

[1] = A549, A549/NF-κBLuc cells, compound added 1 hour before IL-1β, 3 hours more incubation, luciferase activity as index
[2] = A549, same value printed in parentheses in μM, A549/NF-κBLuc cells, IL-1β stimulation, luciferase activity

IC50 [1] [µg/mL]	IC50 [2] [µM]	IC50 value (A549/NF-κBLuc cells, compound added 1 hour before IL-1β, 3 hours more incubation, luciferase activity as index) [µg/mL]	SMILES
> 30			COC1=C(OC)C(=O)C(Cc2ccc(-c3ccncc3)c(C(=O)Nc3ccc(C(F)(F)F)cc3)c2)=C(C)C1=O [Example 61, N-[5-(5,6-Dimethoxy-3-methyl-1,4-benzoquinon-2-yl)methyl-2-(4-pyridyl)benzoyl]-4-trifluoromethylaniline]
12	23		COC1=C(OC)C(=O)C(Cc2ccc(-c3ccc(OC)cc3)c(C(=O)Nc3ccc(OC)cc3)c2)=C(C)C1=O [Example 64, N-[5-(5,6-Dimethoxy-3-methyl-1,4-benzoquinon-2-yl)methyl-2-(4-methoxyphenyl]benzoyl)-4-methoxyaniline]
40	82		COC1=C(OC)C(=O)C(Cc2ccc(-c3cccc(OC)c3)c(C(=O)N3CCCCC3)c2)=C(C)C1=O [Example 65, N-[5-(5,6-Dimethoxy-3-methyl-1,4-benzoquinon-2-yl)methyl-2-(3-methoxyphenyl)benzoyl]-piperidine]
42	85		COC1=C(OC)C(=O)C(Cc2ccc(-c3cccc(OC)c3)c(C(=O)N3CCOCC3)c2)=C(C)C1=O [Example 66, N-[5-(5,6-Dimethoxy-3-methyl-1,4-benzoquinon-2-yl)methyl-2-(3-methoxyphenyl)benzoyl]-morpholine]
> 45			COC1=C(OC)C(=O)C(Cc2ccc(-c3cccc(OC)c3)c(C(=O)Nc3ccc(OC)cc3)c2)=C(C)C1=O [Example 67, N-[5-(5,6-Dimethoxy-3-methyl-1,4-benzoquinon-2-yl)methyl-2-(3-methoxyphenyl)benzoyl]-4-methoxyaniline]
> 45			COC1=C(OC)C(=O)C(Cc2ccc(-c3ccccc3OC)c(C(=O)Nc3ccc(OC)cc3)c2)=C(C)C1=O [Example 68, N-[5-(5,6-Dimethoxy-3-methyl-1,4-benzoquinon-2-yl)methyl-2-(2-methoxyphenyl)benzoyl]-4-methoxyaniline]
> 30			COC1=C(OC)C(=O)C(Cc2cccc(C(=O)Nc3ccc(C(F)(F)F)cc3)c2-c2ccncc2)=C(C)C1=O [Example 73, N-[3-(45,6-Dimethoxy-3-methyl-1,4-benzoquinon-2-yl)methyl-2-(4-pyridyl)benzoyl]-4-trifluoromethylaniline]
> 45			COC1=C(OC)C(=O)C(Cc2ccc(-c3ccncc3)c(C(=O)N[C@@H](C)c3ccccc3)c2)=C(C)C1=O [Example 74a, (S)-N-[5-(5,6-Dimethoxy-3-methyl-1,4-benzoquinon-2-yl)methyl-2-(4-pyridyl)benzoyl]-1-phenylethylamine]
		>45	COC1=C(OC)C(=O)C(Cc2ccc(-c3ccncc3)c(C(=O)N[C@@H](C)c3ccccc3)c2)=C(C)C1=O [Example 74b, (S)-N-[5-(5,6-Dimethoxy-3-methyl-1,4-benzoquinon-2-yl)methyl-2-(4-pyridyl)benzoyl]-1-phenylethylamine]
> 45			COC1=C(OC)C(=O)C(Cc2ccc(-c3ccncc3)c(C(=O)N[C@H](C)c3ccccc3)c2)=C(C)C1=O [Example 75a, (R)-N-[5-(5,6-Dimethoxy-3-methyl-1,4-benzoquinon-2-yl)methyl-2-(4-pyridyl)benzoyl]-1-phenylethylamine]
> 45			COC1=C(OC)C(=O)C(Cc2ccc(-c3ccncc3)c(C(=O)NC3CCCCC3)c2)=C(C)C1=O [Example 76a, N-[5-(5,6-Dimethoxy-3-methyl-1,4-benzoquinon-2-yl)methyl-2-(4-pyridyl)benzoyl]cyclohexyl-amine]
> 45			COC1=C(OC)C(=O)C(Cc2ccc(-c3ccncc3)c(C(=O)NC3CCCC3)c2)=C(C)C1=O [Example 77a, N-[5-(5,6-Dimethoxy-3-methyl-1,4-benzoquinon-2-yl)methyl-2-(4-pyridyl)benzoyl]cyclopentylamine]
> 45			COC1=C(OC)C(=O)C(Cc2ccc(-c3ccncc3)c(C(=O)NC3CC3)c2)=C(C)C1=O [Example 78a, N-[5-(5,6-Dimethoxy-3-methyl-1,4-benzoquinon-2-yl)methyl-2-(4-pyridyl)benzoyl]cyclopropyl-amine]
> 45			CCC(CC)NC(=O)c1cc(CC2=C(C)C(=O)C(OC)=C(OC)C2=O)ccc1-c1ccncc1 [Example 79a, N-[5-(5,6-Dimethoxy-3-methyl-1,4-benzoquinon-2-yl)methyl-2-(4-pyridyl)benzoyl]-1-ethylpropylamine]
